Results as given in US20230255195A1, “CRYOPRESERVATION METHOD FOR ORGAN-ON-A-CHIP” (MEPSGEN CO., LTD., priority 2020, published 2023).

Tested on: three-dimensional organ-on-a-chip (hBMEC, pericytes, astrocytes in hydrogel)
Experiment: TEER (transepithelial electrical resistance) of organ-on-a-chip after cryopreservation and thawing
Type: cell-based, human
Conditions: for TEER value after freezing compared with TEER value before freezing (normalized, before freezing set to 1): substance used as cryoprotectant in the cryopreservation method of Example 2, FIG. 9; for TEER value after freezing compared with TEER value before freezing (normalized): FIG. 10
Protocol: 10 μl of fibronectin was injected into each of the first channel and the second channel of the organ-on-a-chip of the present invention, and cultured in an incubator for 1 hour. Cell adhesion promoters of the first channel and the second channel were removed, and 10^7 cells/ml of a pericyte solution was injected into the second channel. After culturing for 3 hours in an incubator with the chip inverted, the culture solution in the second channel was removed. After injecting 10^7 cells/ml of a mixture in which astrocytes and hydrogel were mixed in a 1:9 volume ratio into the second channel, they were cultured in an incubator for 30 minutes. The culture solution was injected into the side channel and the first channel, and the well reservoir was filled with the culture solution and cultured for one day, and then 10^7 cells/ml of human brain microvascular endothelial cell (hBMEC) solution was injected into the first channel. After culturing for 1 hour in an incubator, the culture solution in the first channel was replaced and cultured for one day. The culture solution in the first channel and the side channel was replaced, and the side channel was plugged in, and then one side of the inlets of the first channel was connected to a syringe pump, and the other side was connected to a culture solution tank, and perfusion culture was performed at 4 dynes/cm^2 for 24 hours.
All of the culture solution in the well reservoir was removed from the organ-on-a-chip of Example 1 above, and the first channel and the side channel were washed with the culture solution. The side channel was washed twice with the cryopreservation solution (50% culture solution, 40% FBS, 10% DMSO) at 4 to 10° C. The culture solution in both inlets of the first channel was removed, and 30 μl of the cryopreservation solution was put into the inlet, and the cryopreservation solution was flowed by a difference in hydrostatic pressure (1 minute required). The preservation solution in the opposite inlet was removed, and 30 μl of the cryopreservation solution was additionally put into the inlet, and the cryopreservation solution was flowed by a difference in hydrostatic pressure (1 minute required). The chip was placed in a freezing container filled with isopropanol, and stored refrigerated for 15 minutes at 4° C., and then stored in a deep freezer (−80° C.).
The organ-on-a-chip of Example 2 above was taken out of the deep freezer and thawed for 10 minutes by immersing it in a constant temperature water bath (37° C.) so that the bottom was in contact, and then the culture solution in the side channel was replaced twice with a culture solution at 37° C. The preservation solution in both inlets of the first channel was removed, and 30 μl of the culture solution at 37° C. was put into the inlet, and the culture solution was flowed by a difference in hydrostatic pressure (1 minute required). The culture solution in the opposite inlet was removed, and 30 μl of the culture solution at 37° C. was additionally put into the inlet, and the culture solution was flowed by a difference in hydrostatic pressure (1 minute required). The well reservoir was filled with the culture solution at 37° C. and cultured for 24 hours or more.
The TEER value corresponds to a representative index for evaluating the cell-to-cell bonding force and the material permeability rate of the tissue and the like in the tissue function of the three-dimensional organ-on-a-chip.
The TEER value (ohm/cm^2) was calculated as follows, and the TEER value before freezing was set to 1 and compared and evaluated with the TEER value after freezing (normalized).

SMILES	TEER value after freezing compared with TEER value before freezing (normalized, before freezing set to 1)	TEER value after freezing compared with TEER value before freezing (normalized) (DMSO content 3% in preservation solution)	TEER value after freezing compared with TEER value before freezing (normalized) (DMSO content 5% in preservation solution)	TEER value after freezing compared with TEER value before freezing (normalized) (DMSO content 10% in preservation solution)
OCCO [EG, ethylene glycol]	lower than the TEER value before freezing	–	–	–
C[S+](C)[O-] [DMSO, dimethyl sulfoxide]	increased	remained the same	increased	increased
OCC(O)CO [glycerol]	remained the same	–	–	–
